Reference: US20230257710A1, “NATURAL KILLER CELL HAVING CONTROLLED ONCOLOGY-RELEATED GENE EXPRESSION, AND USE THEREOF” (SUNGKWANG MEDICAL FOUNDATION, priority 2020, published 2023)

System: A2780cis xenograft
Format: in vivo, NSG mice
Experimental: The efficacy was evaluated by confirming the growth inhibitory effect of natural killer cells (pNK) cultured by the culture method according to one aspect as an immuno-anticancer agent. An A2780cis xenograft mouse model was prepared by subcutaneously injecting the […] ovarian cancer cell line A2780cis into the fat pad of 7-week-old NSG mice in an amount of 2×10^6 (cells). After ovarian cancer cell lines were injected, mice with tumors were randomly grouped on day 3: a group treated with intraperitoneal injection of cisplatin at 1 mg/kg, once/week; a group treated with intravenous injected of natural killer cells according to one aspect in the number of 1×10^7 (cells), 2 times/week; and a control group treated with the injection of PBS (FIG. 8). After injection of the ovarian cancer cell line, tumor size and body weight were measured daily.

Compound: N.N.[Cl][Pt][Cl] [cisplatin]
- cancer cell growth inhibitory effect (compared to the control group (PBS), A2780cis xenograft NSG mice): about 55%
- change in body weight (mouse, in vivo): no significant change in body weight
